# From patent publication US8329699B2, “Pyrrolopyrazine kinase inhibitors” (Hoffmann-La Roche Inc., priority 2010, dated 2012)
# Counter-ions that a name gives are not always drawn.
# Tests used:
# [1] = target: T1, JAK3: Recombinant human kinase domain (h-jak3-sf21-c) (Homo sapiens, UniProt P52333); test: Determination of IC50 of Janus Kinase (JAK) inhibition, JAK3 (radioactive end-point assay with 33P-ATP); format: biochemical; settings: ATP 1.5 uM, peptide 50 uM, 20 minutes, room temperature
# T1 construct: JAK3: Recombinant human kinase domain from Millipore (Cat # 14-629) or prepared; purchased Millipore 14-629
# Description: Determination of IC50 of Janus Kinase (JAK) Inhibition:
# Enzymes and peptide substrate used are described below: • JAK1: Recombinant human kinase domain from Invitrogen (Cat # PV4774) • JAK3: Recombinant human kinase domain from Millipore (Cat # 14-629) or prepared. • JAK2: Recombinant human kinase domain from Millipore (Cat # 14-640) • Substrate: N-terminally biotinylated 14-mer peptide derived from activation loop of JAK1 with sequence of the peptide substrate: Biotin-[…]
# Assay conditions used are described below: • Assay Buffer: JAK Kinase Buffer: 50 mM Hepes [pH 7.2], 10 mM MgCl2, 1 mM DTT, 1 mg/mL BSA. The assay is carried out in this buffer. • Assay Format The kinase activity of all three JAK kinases is measured using a radioactive, end-point assay and with trace amounts of^33P-ATP. The assays are carried out in 96-well polypropylene plates. Experimental Method:
# All concentrations are final in the reaction mixture and all incubations are carried at room temperature. Assay steps are described below: • 1) Compounds are serially diluted in 100% DMSO typically at a 10× starting concentration of 1 mM. Final concentration of DMSO in the reaction is 10%. • 2) Compounds are preincubated with enzyme (0.5 nM JAK3 (commercially available), 0.2 nM JAK3 (prepared), 1 nM JAK2, 5 nM JAK1) for 10 minutes. • 3) Reactions are initiated by the addition of a cocktail of the two substrates (ATP and peptide premixed in the JAK Kinase Buffer). In the JAK2/JAK3 assays, ATP and the peptide are used at concentrations of 1.5 uM and 50 uM, respectively. JAK1 assay is carried out at an ATP concentration of 10 uM and a peptide concentration of 50 uM. • 4) The duration of the assay for JAK2 and JAK3 is 20 minutes. JAK1 assay is carried out for 40 minutes. With all three enzymes, reactions are terminated by the addition of 0.5M EDTA to a final concentration of 100 mM. • 5) 25 ul of terminated reactions are transferred to 150 ul of a 7.5% (v/v) slurry of streptavidin-coated sepharose beads in MgCl2- and CaCl2-free 1× Phosphate Buffered Saline containing 50 mM of EDTA in 96-well, 1.2 um MultiScreen-BV filter plates. • 6) After a 30-minute incubation, the beads are washed under vacuum with the following buffers: • a. 3 to 4 washes with 200 ul of 2M NaCl. • b. 3 to 4 washes with 200 ul of 2M NaCl plus 1% (v/v) phosphoric acid. • c. 1 wash with water. • 7) Washed plates are dried in a 60° C. oven for between 1 to 2 hours. • 8) 70 ul of Microscint 20 scintillation fluid is added to each well of filter plates and after at least 30 minutes of incubation, radioactive counts are measured in a Perkinelmer microplate scintillation counter.
# T1 sequence (P52333 822-1111 limits assumed): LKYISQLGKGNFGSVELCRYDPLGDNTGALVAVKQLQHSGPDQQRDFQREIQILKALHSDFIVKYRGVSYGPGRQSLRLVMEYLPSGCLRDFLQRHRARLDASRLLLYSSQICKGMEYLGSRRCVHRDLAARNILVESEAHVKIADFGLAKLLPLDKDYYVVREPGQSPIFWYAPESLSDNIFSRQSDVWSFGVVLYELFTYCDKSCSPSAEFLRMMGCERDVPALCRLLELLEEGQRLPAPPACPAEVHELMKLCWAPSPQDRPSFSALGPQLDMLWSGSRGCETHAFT
SMILES,IC50 [1],melting point
"CC(C)(O)C1(NC(=O)c2c[nH]c3ncc(C4CC4)nc23)CCNC1 (centres unmarked) [Compound I-17, 2-Cyclopropyl-5H-pyrrolo[2,3-b]pyrazine-7-carboxylic acid [3-(1-hydroxy-1-methyl-ethyl)-pyrrolidin-3-yl]-amide]",10000 nM,–
"N#C[C@@H]1CCC[C@@H]1NC(=O)c1c[nH]c2ncc(C3CC3)nc12 (relative stereo) [Compound I-25, 2-Cyclopropyl-5H-pyrrolo[2,3-b]pyrazine-7-carboxylic acid ((cis)-2-cyano-cyclopentyl)-amide]",10 nM,> 300 °C
"CC(=O)N1CCCC(NC(=O)c2c[nH]c3ncc(C4CC4)nc23)C1 (centres unmarked) [Compound I-38, 2-Cyclopropyl-5H-pyrrolo[2,3-b]pyrazine-7-carboxylic acid (1-acetyl-piperidin-3-yl)-amide]",74.2 nM,215 to 218 °C
"O=C(NC1CCCOC1)c1c[nH]c2ncc(C3CC3)nc12 (centres unmarked) [Compound I-6, 2-Cyclopropyl-5H-pyrrolo[2,3-b]pyrazine-7-carboxylic acid (tetrahydro-pyran-3-yl)-amide]",15.6 nM,> 300 °C
"CCn1cc(-c2cnc3[nH]cc(C(=O)NC4CCCCC4(C)C)c3n2)cn1 (centres unmarked) [Compound I-39, 2-(1-Ethyl-1H-pyrazol-4-yl)-5H-pyrrolo[2,3-b]pyrazine-7-carboxylic acid (2,2-dimethyl-cyclohexyl)-amide]",0.3 nM,–
"CC(=O)N[C@@H]1CCc2ccc(Oc3cnc4[nH]cc(C(=O)NC5CCS(=O)(=O)CC5)c4n3)cc21 [Compound I-41, 2-((R)-3-Acetylamino-indan-5-yloxy)-5H-pyrrolo[2,3-b]pyrazine-7-carboxylic acid (1,1-dioxo-hexahydro-1λ6-thiopyran-4-yl)-amide]",2160 nM,–
"CS(=O)(=O)N1CCC(NC(=O)c2c[nH]c3ncc(C4CC4)nc23)C1 (centres unmarked) [Compound I-20, 2-Cyclopropyl-5H-pyrrolo[2,3-b]pyrazine-7-carboxylic acid (1-methanesulfonyl-pyrrolidin-3-yl)-amide]",35.4 nM,> 300 °C
"CS(=O)(=O)N1CCC(NC(=O)c2c[nH]c3ncc(C4CC4)nc23)CC1 [Compound I-21, 2-Cyclopropyl-5H-pyrrolo[2,3-b]pyrazine-7-carboxylic acid (1-methanesulfonyl-piperidin-4-yl)-amide]",96.2 nM,278 to 280 °C
"CC1(C)CCCCC1NC(=O)c1c[nH]c2ncc(C3CC3)nc12 (centres unmarked) [Compound I-32, 2-Cyclopropyl-5H-pyrrolo[2,3-b]pyrazine-7-carboxylic acid (2,2-dimethyl-cyclohexyl)-amide]",1.1 nM,295 to 297 °C
"O=C(N[C@H]1CCOC[C@@H]1O)c1c[nH]c2ncc(C3CC3)nc12 [Compound I-15, 2-Cyclopropyl-5H-pyrrolo[2,3-b]pyrazine-7-carboxylic acid ((3R,4S)-3-hydroxy-tetrahydro-pyran-4-yl)-amide]",423 nM,–
"CC(C)(O)C1(NC(=O)c2c[nH]c3ncc(C4CC4)nc23)CCNC1 (centres unmarked) (as salt: hydrochloride) [Compound I-17, 2-Cyclopropyl-5H-pyrrolo[2,3-b]pyrazine-7-carboxylic acid [3-(1-hydroxy-1-methyl-ethyl)-pyrrolidin-3-yl]-amide]",–,200 to 203 °C
"CC(C)(O)C1(NC(=O)c2c[nH]c3ncc(C4CC4)nc23)CCOC1 (centres unmarked) [Compound I-18, 2-Cyclopropyl-5H-pyrrolo[2,3-b]pyrazine-7-carboxylic acid [3-(1-hydroxy-1-methyl-ethyl)-tetrahydro-furan-3-yl]-amide]",342 nM,213 to 215 °C
"CC(=O)N1CCC(NC(=O)c2c[nH]c3ncc(C4CC4)nc23)CC1 [Compound I-36, 2-Cyclopropyl-5H-pyrrolo[2,3-b]pyrazine-7-carboxylic acid (1-acetyl-piperidin-4-yl)-amide]",167 nM,273 to 275 °C
"CC(=O)N[C@@H]1CCc2ccc(Oc3cnc4[nH]cc(C(=O)NC5CCCCC5)c4n3)cc21 [Compound I-40, 2-((R)-3-Acetylamino-indan-5-yloxy)-5H-pyrrolo[2,3-b]pyrazine-7-carboxylic acid cyclohexylamide]",50.2 nM,–

# The remaining molecules from weak to strong by IC50 [1], led by results:
IC50 [1],melting point,SMILES
674 nM,294 to 296 °C,"O=C(NC1(CO)CCOCC1)c1c[nH]c2ncc(C3CC3)nc12 [Compound I-2, 2-Cyclopropyl-5H-pyrrolo[2,3-b]pyrazine-7-carboxylic acid (4-hydroxymethyl-tetrahydro-pyran-4-yl)-amide]"
120 nM,242 to 245 °C,"CC(=O)N1CCC(NC(=O)c2c[nH]c3ncc(C4CC4)nc23)C1 (centres unmarked) [Compound I-37, 2-Cyclopropyl-5H-pyrrolo[2,3-b]pyrazine-7-carboxylic acid (1-acetyl-pyrrolidin-3-yl)-amide]"
73.2 nM,255 to 258 °C,"CC(C)S(=O)(=O)N1CCCC(NC(=O)c2c[nH]c3ncc(C4CC4)nc23)C1 (centres unmarked) [Compound I-29, 2-Cyclopropyl-5H-pyrrolo[2,3-b]pyrazine-7-carboxylic acid [1-(propane-2-sulfonyl)-piperidin-3-yl]-amide]"
49.7 nM,232 to 234 °C,"CC(C)(O)C1(NC(=O)c2c[nH]c3ncc(C4CC4)nc23)CCCC1 [Compound I-12, 2-Cyclopropyl-5H-pyrrolo[2,3-b]pyrazine-7-carboxylic acid [1-(1-hydroxy-1-methyl-ethyl)-cyclopentyl]-amide]"
44.2 nM,272 to 274 °C,"O=C(NC1(CO)CCCC1)c1c[nH]c2ncc(C3CC3)nc12 [Compound I-3, 2-Cyclopropyl-5H-pyrrolo[2,3-b]pyrazine-7-carboxylic acid (1-hydroxymethyl-cyclopentyl)-amide]"
5.3 nM,> 300 °C,"CC1(C)OCCC1NC(=O)c1c[nH]c2ncc(C3CC3)nc12 (centres unmarked) [Compound I-4, 2-Cyclopropyl-5H-pyrrolo[2,3-b]pyrazine-7-carboxylic acid (2,2-dimethyl-tetrahydro-furan-3-yl)-amide]"
5.2 nM,> 300 °C,"O=C(NC1CCCCC1)c1c[nH]c2ncc(C3CC3)nc12 [Compound I-22, 2-Cyclopropyl-5H-pyrrolo[2,3-b]pyrazine-7-carboxylic acid cyclohexylamide]"
3.7 nM,277 to 280 °C,"CS(=O)(=O)N1CCC[C@@H](NC(=O)c2c[nH]c3ncc(C4CC4)nc23)C1 [Compound I-31, 2-Cyclopropyl-5H-pyrrolo[2,3-b]pyrazine-7-carboxylic acid ((R)-1-methanesulfonyl-piperidin-3-yl)-amide]"
2.1 nM,–,"CC1(C)CCN(S(C)(=O)=O)CC1NC(=O)c1c[nH]c2ncc(C3CC3)nc12 (centres unmarked) [Compound I-35, 2-Cyclopropyl-5H-pyrrolo[2,3-b]pyrazine-7-carboxylic acid (1-methanesulfonyl-4,4-dimethyl-piperidin-3-yl)-amide]"
1.1 nM,> 300 °C,"CC1(C)CCCC1NC(=O)c1c[nH]c2ncc(C3CC3)nc12 (centres unmarked) [Compound I-7, 2-Cyclopropyl-5H-pyrrolo[2,3-b]pyrazine-7-carboxylic acid (2,2-dimethyl-cyclopentyl)-amide]"
